Laboratory results taken from US10155751B2, “Pyrazolyl-substituted heteroaryls and their use as medicaments” (Boehringer Ingelheim International GmbH, priority 2015, dated 2018).

Columns and labels:
[1] = system: SYK dependent basophil degranulation (CD63 surface expression on basophils in whole blood); test: CD63-assay (cellular assay for SYK-inhibition) in whole blood; assay type: cell-based; settings: whole blood, DNP/anti-DNP stimulated basophils; read-out: CD63 assay EC50-value (chapter 5.2)
Description: In this assay, IgE raised against dinitrophenol (DNP) is incubated in whole blood where it binds to the FcεR1 on basophils. […] CD63 normally resides on the intracellular granule membrane within basophils, which upon degranulation, is then expressed on the surface where it can be detected by flow cytometry. Surface expression of CD63 correlates extremely well with the release of histamine from basophils. The CD63 assay has previously been validated as a clinical target engagement biomarker in the Fostamatinib SYK program (Braselmann et al, J. Pharm. Exp. Therap. 319:998-1008, 2006). Heparinized whole blood is mixed gently (vortex mixer) and […] per test aliquoted into a 96 well plate. Anti-DNP (1 mg/ml) is diluted 1:100 with PBS/0.1% HSA to 10 μg/ml (final concentration: 1 μg/mL). Pre-dilute DNP/BSA (5 mg/ml) to a concentration of 60 ng/ml with washing solution. Compounds: […] Reagents are provided from the Basotest® kit. Incubate 10 μl of 10 μg/ml anti DNP and 10 μl of compound with 100 μl whole blood in a 37° C. pre-warmed water bath. After 30 minutes, 20 μl of STIMULATION BUFFER is added to the whole blood samples and vortexed gently. Incubate the samples for 10 min at 37° C. in a water bath. 100 μl of DNP/BSA is added per test to the whole blood. Add 100 μl of the WASHING SOLUTION to a further test tube as a negative control. Add 100 μl of DNP/BSA (final 30 ng/ml) in the compound tubes. All tubes are mixed once more. The samples are incubated for 20 min at 37° C. in a water bath. Stop degranulation by incubating the samples on ice for 5 min. Add 20 μl of STAINING REAGENT to each tube. Vortex and incubate the tubes for 20 min in an ice bath, covered to prevent exposure to light. The whole blood samples are lysed and fixed with 2 ml of pre-warmed (room temperature) 1×LYSING SOLUTION. Vortex and incubate for 10 min at room temperature. Spin down cells (5 min, 250×g, 4° C.). Discard the supernatant. Add 3 ml of WASHING SOLUTION to the tubes. Centrifuge the tubes (5 min, 250×g, 4° C.). Aspirate the supernatant. Add 200 μl WASHING SOLUTION to the cell pellet, vortex. Incubate the tubes in a covered ice bath until analysis. Cells are analysed by flow cytometry using the blue-green excitation light (488 nm argon-ion laser). Acquire data by using fluorescence triggering in the FL2 channel (PE) to gate on basophilic granulocytes expressing high amounts of IgE. This live gating reduces the amount of data and saves memory capacity. Acquire at least 500 basophils per sample. For data evaluation and calculation, the measurement of the negative control (unstimulated blood) was set as 100% control and the measurement of the positive control (DNP/anti-DNP stimulated blood) was set as 0% control. Based on these values the % value for the measurement of each substance concentration was calculated, a concentration-effect curve fitted and an EC50 value calculated using GraphPad Prism version 6.01 for Windows. The EC50 value was calculated using a nonlinear fitting (log(inhibitor) vs. response—variable slope). Normally, the % control values calculated are between 0% and 100% values but may also occur outside these limits in individual cases based on variability or compound characteristics.

[2] = biological target: Recombinant human FLT3 (amino acids 564-958) (Homo sapiens (Human), UniProt P36888); test: FLT3 kinase test (ADP Glo); assay type: biochemical; settings: read-out: FLT3 inhibition IC50-value (chapter 5.4)
Description: The activity of the FLT3 kinase protein was determined using the ADP Glo® Luminescence Kinase test (Promega; V9103X). In this homogeneous test the amount of ADP remaining after the kinase reaction is quantified by a luciferin-luciferase reaction using luminescence. The luminescence signal obtained correlates with the amount of ADP still present and thus correlates with the activity of the protein kinase.
The test compounds were dissolved in 100% DMSO at a concentration of 10 mM and diluted in DMSO to a concentration of 5 mM. Serial Dilution is done in 1:10 steps in 100% DMSO. All further dilutions of the substances were carried out with test buffer (50 mM Hepes, pH 7.5, 10 mM MgCl2, 1 mM EGTA, 0.01% Brij35, 0.1% BSA) until a concentration was reached which was 2.5 times above the final test concentration (final concentration of the compounds: 50 μM to 0.005 nM). […] FLT3 enzyme was diluted to 5 nM in the test buffer and 4 μl of this dilution were used in the kinase test (final concentration of FLT3=2 nM in a total volume of 10 μl). After 60 minutes incubation at room temperature 2 μl mixture of 2.5 mg/ml substrate (Poly-Glu/Tyr; Sigma #P0275) and 2.5 mM ultra-pure ATP (Promega #V915B) in test buffer were added to each well and the incubation was continued for a further 90 minutes at room temperature.
Positive controls are the reaction mixtures that contain no test substance; negative controls (blanks) are reaction mixtures that contain no kinase.
After 90 minutes, 10 μl ADP-Glo® solution (ADP-Glo Reagent #V912B Promega) (heated to room temperature) were added to each well and incubation was continued for a further 60. minutes. Then 20 μl Kinase detection mix (Detection Buffer #V913B Promega; Kinase Detection Substrate #V914B Promega) were added and incubated for 40 minutes at room temperature. The plates were read in Envision Luminescence Reader (Perkin-Elmer).
The output file of the reader is a csv file that contains the well number and measured RLU. For data evaluation and calculation, the measurement of the negative control was set as 0% ctrl and the measurement of the positive control was set as 100% ctrl. Based on this values the % value for the measurement of each substance concentration can be calculated using an Assay Explorer software (e.g. Accelrys). Normally, the % ctrl values calculated are between 0% and 100% values but may also occur outside these limits in individual cases based on variability or compound characteristics. The IC50 values were calculated from the % ctrl values using Assay Explorer software. Calculation: [y=(a−d)/(1+(x/c)^b)+d], a=low value, d=high value; x=conc. M; c=IC50 M; b=hill; y=% ctrl.

Recombinant human FLT3 (amino acids 564-958), sequence (P36888 564-958): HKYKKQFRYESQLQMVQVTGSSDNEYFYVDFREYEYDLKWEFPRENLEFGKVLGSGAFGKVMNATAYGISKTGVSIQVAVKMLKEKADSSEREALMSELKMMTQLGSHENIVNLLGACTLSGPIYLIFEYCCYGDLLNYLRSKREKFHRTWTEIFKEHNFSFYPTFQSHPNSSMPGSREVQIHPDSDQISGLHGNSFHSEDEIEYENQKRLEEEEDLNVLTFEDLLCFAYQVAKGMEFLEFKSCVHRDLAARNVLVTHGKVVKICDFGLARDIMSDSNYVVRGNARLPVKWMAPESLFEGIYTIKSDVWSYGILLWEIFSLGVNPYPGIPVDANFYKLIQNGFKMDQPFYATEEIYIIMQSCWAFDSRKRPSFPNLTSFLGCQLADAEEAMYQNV

C[C@@H](Oc1cc(-c2cnn(C3CCC3)c2)cc2nn(C)c(F)c12)[C@H]1CNC(=O)C1 [Example 1, (R)-4-{(R)-1-[6-(1-Cyclobutyl-1H-pyrazol-4-yl)-3-fluoro-2-methyl-2H-indazol-4-yloxy]-ethyl}-pyrrolidin-2-one]
EC50 [1]: 41 nM
IC50 [2]: 2230 nM

CC(C)n1cc(-c2cc(O[C@H](C)[C@H]3CNC(=O)C3)c3c(F)n(C)nc3c2)cn1 [Example 2, (R)-4-{(R)-1-[3-Fluoro-6-(1-isopropyl-1H-pyrazol-4-yl)-2-methyl-2H-indazol-4-yloxy]-ethyl}-pyrrolidin-2-one]
EC50 [1]: 45 nM
IC50 [2]: 2830 nM

Cc1c2c(O[C@H](C)[C@H]3CNC(=O)O3)nc(-c3cnn(C(C)(C)C)c3)cc2nn1C [Example 3, (R)-5-{(R)-1-[6-(1-tert-Butyl-1H-pyrazol-4-yl)-2,3-dimethyl-2H-pyrazolo[4,3-c]pyridin-4-yloxy]-ethyl}-oxazolidin-2-one]
EC50 [1]: 51 nM
IC50 [2]: 1340 nM

Cc1c2c(O[C@H](C)[C@H]3CNC(=O)C3)nc(-c3c[nH]nc3C(C)(C)C)cc2nn1C [Example 4, (R)-4-{(R)-1-[6-(3-tert-Butyl-1H-pyrazol-4-yl)-2,3-dimeth-yl-2H-pyrazolo[4,3-c]pyridin-4-yloxy]-ethyl}-pyrrolidin-2-one]
EC50 [1]: 64 nM
IC50 [2]: 7410 nM

C[C@@H](Oc1cc(-c2cnn(C3CC3)c2)cc2nn(C)c(F)c12)[C@H]1CNC(=O)C1 [Example 5, (R)-4-{(R)-1-[6-(1-Cycloprop-yl-1H-pyrazol-4-yl)-3-fluoro-2-methyl-2H-indazol-4-yloxy]-ethyl}-pyrrolidin-2-one]
EC50 [1]: 52 nM
IC50 [2]: 3990 nM

C[C@@H](Oc1cc(-c2cnn(CC3CC3)c2)cc2nn(C)c(F)c12)[C@H]1CNC(=O)C1 [Example 6, (R)-4-{(R)-1-[6-(1-Cycloprop-ylmethyl-1H-pyrazol-4-yl)-3-fluoro-2-methyl-2H-indazol-4-yloxy]-ethyl}-pyrrolidin-2-one]
EC50 [1]: 42 nM
IC50 [2]: 3730 nM

C[C@@H](Oc1cc(-c2cnn(C3CCC(F)(F)C3)c2)cc2nn(C)c(F)c12)[C@H]1CNC(=O)C1 (stereo partly drawn) [Example 7]
EC50 [1]: 53 nM
IC50 [2]: 2440 nM

Cc1c2c(O[C@H](C)[C@H]3CNC(=O)C3)cc(-c3cnn(CC4CC4)c3)cc2nn1C [Example 8, (R)-4-{(R)-1-[6-(1-Cyclopropylmethyl-1H-pyrazol-4-yl)-2,3-dimethyl-2H-indazol-4-yloxy]-ethyl}-pyrrolidin-2-one]
EC50 [1]: 47 nM
IC50 [2]: 2070 nM

Cc1c2c(O[C@H](C)[C@H]3CNC(=O)C3)cc(-c3cnn([C@@H]4CCOC(C)(C)C4)c3)cc2nn1C [Example 9, (R)-4-((R)-1-{6-[1-((R)-2,2-Dimethyl-tetrahydro-pyran-4-yl)-1H-pyrazol-4-yl]-2,3-dimethyl-2H-indazol-4-yloxy}-ethyl)-pyrrolidin-2-one]
EC50 [1]: 52 nM
IC50 [2]: 1840 nM

Cc1c2c(O[C@H](C)[C@H]3CNC(=O)C3)cc(-c3cnn([C@H]4CO[C@@H]5CCCO[C@@H]54)c3)cc2nn1C [Example 10, 4-(1-{6-[(R)-(3S,3aR,7aR)-1-(Hexahydro-furo[3,2-b]pyran-3-yl)-1H-pyrazol-4-yl]-2,3-dimethyl-2H-indazol-4-yloxy}-ethyl)-pyrrolidin-2-one]
EC50 [1]: 65 nM
IC50 [2]: 2020 nM

Cc1c2c(O[C@H](C)[C@H]3CNC(=O)C3)cc(-c3cnn(CCF)c3)cc2nn1C [Example 11, (R)-4-((R)-1-{6-[1-(2-Fluoro-ethyl)-1H-pyrazol-4-yl]-2,3-dimethyl-2H-indazol-4-yloxy}-ethyl)-pyrrolidin-2-one]
EC50 [1]: 65 nM
IC50 [2]: 3480 nM

C[C@@H](Oc1cc(-c2cnn(CCC(F)(F)F)c2)cc2nn(C)c(F)c12)[C@H]1CNC(=O)C1 [Example 12, (R)-4-((R)-1-{3-Fluoro-2-methyl-6-[1-(3,3,3-trifluoro-propyl)-1H-pyrazol-4-yl]-2H-indazol-4-yloxy}-ethyl)-pyrrolidin-2-one]
EC50 [1]: 67 nM
IC50 [2]: 5030 nM

Cc1c2c(O[C@H](C)[C@H]3CNC(=O)C3)cc(-c3cnn(C(C)(C)C)c3)cc2nn1C [Example 13, (R)-4-{(R)-1-[6-(1-tert-Butyl-1H-pyrazol-4-yl)-2,3-dimethyl-2H-indazol-4-yloxy]-ethyl}-pyrrolidin-2-one]
EC50 [1]: 58 nM
IC50 [2]: 5220 nM

C[C@@H](Oc1cc(-c2cnn(C3CC(C)(C)OC3(C)C)c2)cc2nn(C)c(F)c12)[C@H]1CNC(=O)C1 (stereo partly drawn) [Example 14, (R)-4-((R)-1-{3-Fluoro-2-methyl-6-[1-(2,2,5,5-tetramethyl-tetrahydro-furan-3-yl)-1H-pyrazol-4-yl]-2H-indazol-4-yloxy}-ethyl)-pyrrolidin-2-one]
EC50 [1]: 76 nM
IC50 [2]: 4050 nM

Cc1c2c(O[C@H](C)[C@H]3CNC(=O)C3)cc(-c3cnn(C4CC(C)(C)OC4(C)C)c3)cc2nn1C (stereo partly drawn) [Example 16, (R)-4-((R)-1-{2,3-Dimethyl-6-[1-(2,2,5,5-tetramethyl-tetrahydro-furan-3-yl)-1H-pyrazol-4-yl]2H-indazol-4-yloxy}-ethyl)-pyrrolidin-2-one]
EC50 [1]: 82 nM
IC50 [2]: 3490 nM

Cc1c2c(O[C@H](C)[C@H]3CNC(=O)C3)cc(-c3cnn(C(C)(C)C#N)c3)cc2nn1C [Example 17, 2-(4-{2,3-Dimethyl-4-[(R)-1-((R)-5-oxo-pyrrolidin-3-yl)-ethoxy]-2H-indazol-6-yl}-pyrazol-1-yl)-2-methyl-propionitrile]
EC50 [1]: 92 nM
IC50 [2]: 11300 nM

Cc1c2c(O[C@H](C)[C@H]3CNC(=O)C3)cc(-c3cnn(C(C)C)c3)cc2nn1C [Example 18, (R)-4-{(R)-1-[6-(1-Isopropyl-1H-pyrazol-4-yl)-2,3-dimethyl-2H-indazol-4-yloxy]-ethyl}-pyrrolidin-2-one]
EC50 [1]: 95 nM
IC50 [2]: 4670 nM

Cc1c2c(O[C@H](C)[C@H]3CNC(=O)C3)cc(-c3cnn(CC(C)C)c3)cc2nn1C [Example 19, (R)-4-{(R)-1-[6-(1-Isobutyl-1H-pyrazol-4-yl)-2,3-dimethyl-2H-indazol-4-yloxy]-ethyl}-pyrrolidin-2-one]
EC50 [1]: 107 nM
IC50 [2]: 4950 nM
